Patent US7563813B2, “Iminothiazolidinone derivatives as SFRP-1 antagonists” (Wyeth, priority 2005, dated 2009)

Target: T1, hSFRP-1 (Homo sapiens, UniProt Q8N474)
T1 construct: expressed in transfected cells; host or cells: U2OS osteosarcoma cells (ATCC, HTB 96), transient co-transfection with Wnt 3, Wnt3A or Wnt 1, 16x TCF-tk-Luciferase reporter and CMV-beta-gal
T1 sequence (Q8N474 32-314): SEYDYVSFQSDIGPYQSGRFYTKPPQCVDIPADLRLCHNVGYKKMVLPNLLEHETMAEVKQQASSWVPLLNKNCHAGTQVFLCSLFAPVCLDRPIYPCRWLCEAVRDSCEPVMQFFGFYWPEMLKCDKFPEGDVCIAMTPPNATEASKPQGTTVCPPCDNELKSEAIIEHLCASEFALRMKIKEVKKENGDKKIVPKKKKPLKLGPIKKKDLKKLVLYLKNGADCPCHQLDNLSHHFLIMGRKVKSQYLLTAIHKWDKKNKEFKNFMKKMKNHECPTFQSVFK
Assay: Cell-Based Assay for In Vitro Measurement of SFRP-1/SARP2 Antagonist Activity (U2OS cells, 16x TCF-tk-Luciferase reporter, Wnt + hSFRP-1 co-transfection)
Details: initial single dose screening at 10 μM; for fold induction at 10 µM: luciferase reporter activity, fold induction over SFRP-1 control; for Ratio: ratio not defined
Experimental: Cell-Based Assay for In Vitro Measurement of SFRP-1/SARP2 Antagonist Activity
The following cell-based assay can be used to identify inhibitors of SFRP-1.
The osteosarcoma cell line, U2OS (ATCC, HTB 96), was passaged twice a week with growth medium (McCoy's SA medium containing 10% (v/v) fetal calf serum, 2 mM GlutaMAX-1, and 1% (v/v) Penicillin-Streptomycin). The cells were maintained in vented flasks at 37° C. inside a 5% CO2/95% humidified air incubator. One day prior to transfection, the cells were plated with growth medium at 25,000 cells/well into 96-well plates and incubated at 37° C. overnight.
The growth medium was removed, and the cells were washed once with OPTIMEM I (Gibco-BRL) medium (100 μl/well) to remove the serum and antibiotics. The wash medium was removed, and the cells were re-fed with OPTI-MEM I medium (100 μl/well). For each well of cells to be transfected, the following DNA's were diluted together in 25 μl OPTI-MEM I medium: 0.1 μg 16× TCF-tk-Luciferase reporter, 0.02 μg Wnt 3, Wnt3A, Wnt 1 or empty vector (Upstate Biotechnology), 0.075 μg hSFRP-1 or empty vector (pcDNA3.1, Invitrogen), and 0.025 μg CMV-®gal (Clonetech). For each well of cells to be transfected, 1 μl of Lipofectamine 2000 reagent (Invitrogen) was diluted in 25 μl OPTI-MEM I medium and incubated at room temperature for 5 minutes. The diluted DNA's were then combined with the diluted Lipofectamine 2000 (LF2000), and the mixture was incubated at room temperature for 20 minutes. Fifty μl of the DNA-LF 2000 mixture was added to each well, and the plate(s) were incubated at 37° C. in a 5% CO2/95% humidified air incubator for 4 hours. The cells were washed once with 150 μl/well of experimental medium (phenol red-free RPMI Medium 1640 containing 2% fetal bovine serum, 2 mM GlutaMAX-1, and 1% Penicillin-Streptomycin). Finally, the cells were treated overnight at 37° C. with 200 μl/well of experimental medium containing either vehicle (typically DMSO) or diluted compound in replicates of 8 wells/compound.
Initial single dose screening of test compounds was done at 10 μM.
Dose-response experiments were initially performed with the compounds in log increases from 1-10,000 nM. From these dose-response curves, EC50 values were generated.
After treatment, the cells were washed twice with 150 μl/well of PBS without calcium or magnesium and were lysed with 50 μl/well of 1× cell culture lysis reagent (Promega Corporation) on a shaker at room temperature for 30 minutes. Thirty μl aliquots of the cell lysates were transferred to 96-well luminometer plates, and luciferase activity was measured in a MicroLumat PLUS luminometer (EG&G Berthold), or a Victor (PerkinElmer Life Sciences) using […] of luciferase substrate (Promega Corporation). Following the injection of substrate, luciferase activity was measured for 10 seconds after a 1.6 second delay. Similarly, 10 μl aliquots of the cell lysates were transferred to separate 96-well luminometer plates, and 50 μl of Galacton chemiluminescent substrate (Tropix) was added to each well. The plates were covered and incubated on a rotary shaker at room temperature for one hour. ®gal activity was measured in a MicroLumat PLUS luminometer or Victor using 100 μl/well of Light Emission Accelerator (Tropix). Following the injection of the accelerator, ®gal activity was measured for 10 seconds after a 1.6 second delay. The luciferase and ®gal activity data were transferred from the luminometer to a PC and analyzed using the SAS/Excel program. After the luciferase activity was normalized to ®gal, the SAS/Excel program was used to determine the mean and standard deviation of each treatment, to analyze the data for statistical significance, and to determine EC50 values.
As an alternative to co-transfection in a 96 well plate, the U2OS cells were transfected in T225 flasks and the transfected cells were frozen. The frozen cells were thawed and plated on a 96 well plate and the assay was carried out as detailed above. […]

Row | SMILES | fold induction at 10 µM | Ratio
1 | CCOC(=O)c1c(NC(=O)CC2SC(N)=NC2=O)sc(C)c1C (centres unmarked) [Example 1, Ethyl 2-{[(2-amino-4-oxo-4,5-dihydro-1,3-thiazol-5-yl)acetyl]amino}-4,5-dimethylthiophene-3-carboxylate] | 2.5 | 2.5
2 | N=C1NC(=O)C(CC(=O)Nc2cccc(Br)c2)S1 (centres unmarked) [Example 2, N-(3-bromophenyl)-2-(2-imino-4-oxo-1,3-thiazolidin-5-yl)acetamide] | 2 | 1.8
3 | N=C1NC(=O)C(CC(=O)Nc2cccc(F)c2)S1 (centres unmarked) [Example 3, N-(3-fluorophenyl)-2-(2-imino-4-oxo-1,3-thiazolidin-5-yl)acetamide] | 1.5 | 1.3
4 | N#Cc1cccc(NC(=O)CC2SC(=N)NC2=O)c1 (centres unmarked) [Example 4, N-(3-cyanophenyl)-2-(2-imino-4-oxo-1,3-thiazolidin-5-yl)acetamide] | 1.3 | 1.2
5 | CC(=O)Nc1cccc(NC(=O)CC2SC(=N)NC2=O)c1 (centres unmarked) [Example 5, N-[3-(acetylamino)phenyl]-2-(2-imino-4-oxo-1,3-thiazolidin-5-yl)acetamide] | 1.3 | 1.2
6 | N=C1NC(=O)C(CC(=O)Nc2ccc(Cl)c(Cl)c2)S1 (centres unmarked) [Example 6, N-(3,4-dichlorophenyl)-2-(2-imino-4-oxo-1,3-thiazolidin-5-yl)acetamide] | 1.7 | 1.7
7 | N=C1NC(=O)C(CC(=O)Nc2ccc(Cl)cc2Cl)S1 (centres unmarked) [Example 7, N-(2,4-dichlorophenyl)-2-(2-imino-4-oxo-1,3-thiazolidin-5-yl)acetamide] | 1 | 1.0
8 | N=C1NC(=O)C(CC(=O)Nc2cccc(F)c2F)S1 (centres unmarked) [Example 8, N-(2,3-difluorophenyl)-2-(2-imino-4-oxo-1,3-thiazolidin-5-yl)acetamide] | 1.1 | 1.0
9 | N=C1NC(=O)C(CC(=O)Nc2ccc(F)c(F)c2)S1 (centres unmarked) [Example 9, N-(3,4-difluorophenyl)-2-(2-imino-4-oxo-1,3-thiazolidin-5-yl)acetamide] | 1.6 | 1.5
10 | N=C1NC(=O)C(CC(=O)Nc2cccc(Cl)c2)S1 (centres unmarked) [Example 10, N-(3-chlorophenyl)-2-(2-imino-4-oxo-1,3-thiazolidin-5-yl)acetamide] | 2.2 | 2.2
11 | N=C1NC(=O)C(CC(=O)Nc2ccc(F)c(Cl)c2)S1 (centres unmarked) [Example 11, N-(3-chloro-4-fluorophenyl)-2-(2-imino-4-oxo-1,3-thiazolidin-5-yl)acetamide] | 1.9 | 1.7
12 | N=C1NC(=O)C(CC(=O)NCc2ccc(C(F)(F)F)cc2)S1 (centres unmarked) [Example 12, 2-(2-imino-4-oxo-1,3-thiazolidin-5-yl)-N-[4-(trifluoromethyl)benzyl]acetamide] | 1.1 | 1.0
13 | Cc1cc(NC(=O)CC2SC(=N)NC2=O)on1 (centres unmarked) [Example 13, 2-(2-imino-4-oxo-1,3-thiazolidin-5-yl)-N-(3-methylisoxazol-5-yl)acetamide] | 1 | 1.0
14 | C#Cc1cccc(NC(=O)CC2SC(=N)NC2=O)c1 (centres unmarked) [Example 14, N-(3-ethynylphenyl)-2-(2-imino-4-oxo-1,3-thiazolidin-5-yl)acetamide] | 1.8 | 1.6
15 | CSc1cccc(NC(=O)CC2SC(=N)NC2=O)c1 (centres unmarked) [Example 15, 2-(2-imino-4-oxo-1,3-thiazolidin-5-yl)-N-[3-(methylthio)phenyl]acetamide] | 1.5 | 1.2
16 | CCOC(=O)c1c(C)csc1NC(=O)CC1SC(=N)NC1=O (centres unmarked) [Example 16, ethyl 2-{[(2-imino-4-oxo-1,3-thiazolidin-5-yl)acetyl]amino}-4-methylthiophene-3-carboxylate] | 2 | 1.9
17 | N=C1NC(=O)C(CC(=O)Nc2ccccc2)S1 (centres unmarked) [Example 17, 2-(2-imino-4-oxo-1,3-thiazolidin-5-yl)-N-phenylacetamide] | 1.3 | 1.0
18 | N=C1NC(=O)C(CC(=O)NCc2ccccc2)S1 (centres unmarked) [Example 18, N-benzyl-2-(2-imino-4-oxo-1,3-thiazolidin-5-yl)acetamide] | 1.2 | 1.1
19 | N=C1NC(=O)C(CC(=O)NCc2cccc(C(F)(F)F)c2)S1 (centres unmarked) [Example 19, 2-(2-imino-4-oxo-1,3-thiazolidin-5-yl)-N-[3-(trifluoromethyl)benzyl]acetamide] | 1.1 | 0.9
20 | N=C1NC(=O)C(CC(=O)NCc2ccccc2C(F)(F)F)S1 (centres unmarked) [Example 20, 2-(2-imino-4-oxo-1,3-thiazolidin-5-yl)-N-[2-(trifluoromethyl)benzyl]acetamide] | 1.2 | 1.1
21 | N=C1NC(=O)C(CC(=O)NCc2ccc(Cl)cc2)S1 (centres unmarked) [Example 21, N-(4-chlorobenzyl)-2-(2-imino-4-oxo-1,3-thiazolidin-5-yl)acetamide] | 1.2 | 1.0
22 | N=C1NC(=O)C(CC(=O)NCc2cccc(Cl)c2)S1 (centres unmarked) [Example 22, N-(3-chlorobenzyl)-2-(2-imino-4-oxo-1,3-thiazolidin-5-yl)acetamide] | 1.2 | 1.0
23 | N=C1NC(=O)C(CC(=O)NCc2ccccc2Cl)S1 (centres unmarked) [Example 23, N-(2-chlorobenzyl)-2-(2-imino-4-oxo-1,3-thiazolidin-5-yl)acetamide] | 1.2 | 1.0
24 | N=C1NC(=O)C(CC(=O)Nc2cccc(C(N)=O)c2)S1 (centres unmarked) [Example 24, 3-{[(2-imino-4-oxo-1,3-thiazolidin-5-yl)acetyl]amino}benzamide] | 1.2 | 1.0
25 | CCOC(=O)c1cccc(NC(=O)CC2SC(=N)NC2=O)c1 (centres unmarked) [Example 25, ethyl 3-{[(2-imino-4-oxo-1,3-thiazolidin-5-yl)acetyl]amino}benzoate] | 1.7 | 1.4
26 | N=C1NC(=O)C(CC(=O)Nc2cccc(Oc3ccccc3)c2)S1 (centres unmarked) [Example 26, 2-(2-imino-4-oxo-1,3-thiazolidin-5-yl)-N-(3-phenoxyphenyl)acetamide] | 1.5 | 1.4
27 | N=C1NC(=O)C(CC(=O)Nc2cccc(C(=O)c3ccccc3)c2)S1 (centres unmarked) [Example 27, N-(3-benzoylphenyl)-2-(2-imino-4-oxo-1,3-thiazolidin-5-yl)acetamide] | 1.8 | 1.5
28 | N=C1NC(=O)C(CC(=O)Nc2cccc(Cl)c2Cl)S1 (centres unmarked) [Example 28, N-(2,3-dichlorophenyl)-2-(2-imino-4-oxo-1,3-thiazolidin-5-yl)acetamide] | 1.2 | 1.0
